Results taken from the NIST ThermoML archive (doi:10.1021/je060032n).
± gives the expanded uncertainty stated by the source.

Experiment: refractive index (Na D-line) (dimensionless); xn = mol fraction of the nth substance listed
Conditions: 101 kPa, Liquid, Standard Abbe refractometry

Structure (SMILES): NCCNCCO [N-(2-aminoethyl)ethanolamine] + O
- refractive index (298.15 K, x1 = 0.05): 1.37012 ± 0.00044
- refractive index (298.15 K, x1 = 0.07): 1.38204 ± 0.00039
- refractive index (298.15 K, x1 = 0.1): 1.39796 ± 0.00044
- refractive index (298.15 K, x1 = 0.2): 1.43314 ± 0.00085
- refractive index (298.15 K, x1 = 0.3): 1.45253 ± 0.00041
- refractive index (298.15 K, x1 = 0.4): 1.46321 ± 0.00034
- refractive index (298.15 K, x1 = 0.5): 1.4703 ± 0.00038
- refractive index (298.15 K, x1 = 0.5996): 1.47498 ± 0.00043
- refractive index (298.15 K, x1 = 0.7011): 1.47851 ± 0.00046
- refractive index (298.15 K, x1 = 0.8002): 1.48101 ± 0.00048
- refractive index (298.15 K, x1 = 0.8979): 1.48289 ± 0.0005
- refractive index (298.15 K, x1 = 1): 1.48454 ± 0.00052
- refractive index (303.15 K, x1 = 0.05): 1.36931 ± 0.00045
- refractive index (303.15 K, x1 = 0.07): 1.3811 ± 0.00043
- refractive index (303.15 K, x1 = 0.1): 1.39682 ± 0.00039
- refractive index (303.15 K, x1 = 0.2): 1.4318 ± 0.00037
- refractive index (303.15 K, x1 = 0.3): 1.45087 ± 0.00042
- refractive index (303.15 K, x1 = 0.4): 1.46158 ± 0.00045
- refractive index (303.15 K, x1 = 0.5): 1.46857 ± 0.00047
- refractive index (303.15 K, x1 = 0.5996): 1.47321 ± 0.00049
- refractive index (303.15 K, x1 = 0.7011): 1.47671 ± 0.00049
- refractive index (303.15 K, x1 = 0.8002): 1.47918 ± 0.0005
- refractive index (303.15 K, x1 = 0.8979): 1.48103 ± 0.00051
- refractive index (303.15 K, x1 = 1): 1.48269 ± 0.00053
- refractive index (313.15 K, x1 = 0.05): 1.36749 ± 0.00046
- refractive index (313.15 K, x1 = 0.07): 1.37909 ± 0.00043
- refractive index (313.15 K, x1 = 0.1): 1.39453 ± 0.00042
- refractive index (313.15 K, x1 = 0.2): 1.4289 ± 0.00045
- refractive index (313.15 K, x1 = 0.3): 1.44762 ± 0.00047
- refractive index (313.15 K, x1 = 0.4): 1.45811 ± 0.00048
- refractive index (313.15 K, x1 = 0.5): 1.46502 ± 0.00049
- refractive index (313.15 K, x1 = 0.5996): 1.46961 ± 0.00049
- refractive index (313.15 K, x1 = 0.7011): 1.47308 ± 0.0005
- refractive index (313.15 K, x1 = 0.8002): 1.47552 ± 0.00051
- refractive index (313.15 K, x1 = 0.8979): 1.47734 ± 0.00052
- refractive index (313.15 K, x1 = 1): 1.47884 ± 0.00053
- refractive index (323.15 K, x1 = 0.05): 1.36542 ± 0.00046
- refractive index (323.15 K, x1 = 0.07): 1.37696 ± 0.00043
- refractive index (323.15 K, x1 = 0.1): 1.39214 ± 0.00042
- refractive index (323.15 K, x1 = 0.2): 1.42583 ± 0.00046
- refractive index (323.15 K, x1 = 0.3): 1.44425 ± 0.00047
- refractive index (323.15 K, x1 = 0.4): 1.45463 ± 0.00048
- refractive index (323.15 K, x1 = 0.5): 1.46146 ± 0.00049
- refractive index (323.15 K, x1 = 0.5996): 1.46604 ± 0.0005
- refractive index (323.15 K, x1 = 0.7011): 1.46938 ± 0.00051
- refractive index (323.15 K, x1 = 0.8002): 1.47177 ± 0.00051
- refractive index (323.15 K, x1 = 0.8979): 1.47359 ± 0.00052
- refractive index (323.15 K, x1 = 1): 1.47516 ± 0.00053
- refractive index (333.15 K, x1 = 0.05): 1.36367 ± 0.00052
- refractive index (333.15 K, x1 = 0.07): 1.37507 ± 0.00045
- refractive index (333.15 K, x1 = 0.1): 1.38992 ± 0.00057
- refractive index (333.15 K, x1 = 0.2): 1.42264 ± 0.00087
- refractive index (333.15 K, x1 = 0.3): 1.44087 ± 0.00069
- refractive index (333.15 K, x1 = 0.4): 1.45107 ± 0.00058
- refractive index (333.15 K, x1 = 0.5): 1.45777 ± 0.00055
- refractive index (333.15 K, x1 = 0.5996): 1.46223 ± 0.00054
- refractive index (333.15 K, x1 = 0.7011): 1.4656 ± 0.00053
- refractive index (333.15 K, x1 = 0.8002): 1.46805 ± 0.00053
- refractive index (333.15 K, x1 = 0.8979): 1.46977 ± 0.00053
- refractive index (333.15 K, x1 = 1): 1.47128 ± 0.00054
